This is an account of results in paper PMC11475281, “A Novel Liver Cancer-Selective Histone Deacetylase Inhibitor Is Effective against Hepatocellular Carcinoma and Induces Durable Responses with Immunotherapy” (ACS Pharmacology & Translational Science, 2024).

A value given as a limit tells only on which side of the number the result lay.

The term half-life denotes the time needed for the level to fall by half in the phase considered. Low readings indicate fast loss, high ones slow loss. A word on the IC50: it is the concentration that inhibits the measured activity by half.

The nature of data set [1]: Plasma stability (Cyprotex). The data set is classed as in vitro ADME. The method, then:
Based on the data from the aforementioned in vitro studies, we selected STR-V-53 as a candidate for further evaluation in xenograft and murine models of HCC. Before the efficacy studies, we first determined the plasma stability (murine and human) and maximum tolerated dose (MTD) of STR-V-53 in healthy C57Bl/6 mice. […]. For MTD determination, STR-V-53 was administered via i.p. injection using a formulation containing excipients found in FDA-approved drugs—dimethylacetamide (DMA)/Cremophor RH 40 (CRH)/Water (10%/20%/70%)—that we developed.[17] […]
Then cells were treated with another 500 µL of 100 ug/mL PI staining at room temperature for 30 min. The cell cycle was analyzed with BD FACS Aria Illu analyzer, and the data were […]
The stability of STR-V-53 in murine and human plasmas was determined through a contract agreement with Cyprotex, an Evotec Company (https://www.cyprotex.com) […]
days in Kolliphor/DMA/water vehicle. We measured body weight and monitored daily food consumption, overall health, and mortality. […]
C57Bl/6 mice, 6–8 weeks old, 3 males and 3 females per treatment group, were injected intraperitoneally with STR-V-53 at […] in Kolliphor/DMA/water vehicle. Eight hours after the injection, organs were harvested and frozen at −80 °C for subsequent quantification by LC-

The test system of data set [2] is Hep-G2-Red-FLuc intrahepatic tumors. Nature of the data set: Orthotopic xenograft model of Hep-G2-Red-FLuc human HCC. The class given is in vivo, mice. An excerpt: Next, we evaluated the effects of STR-V-53 on tumor growth in an orthotopic murine model of Hep-G2-Red-FLuc Bioware Brite Cell Line (PerkinElmer) in mice. Mice (6–8 weeks old) were orthotopically implanted through a direct intrahepatic artery injection with Hep-G2-Red-FLuc cells according to published protocols.[38] We used the Red-Fluc expression to confirm tumor implantation by bioluminescent imaging using IVIS. Treatment began after imaging confirmed the establishment of intrahepatic tumors (approximately 7 days). Mice were grouped into cohorts with similar average relative chemiluminescence. Tumor-bearing mice in the treatment groups were injected daily with 200 μL of solution of STR-V-53, SORA, or a combination of STR-V-53 and SORA for 21 days via the i.p. route. No treatment group received vehicle only. After treatment, mice were imaged again, sacrificed, and liver samples were harvested to determine the effects of treatment on tumor size by measurement with calipers. […] Moreover, the combination therapy of SORA (10 mg/kg) and STR-V-53 (25 mg/kg) is more efficacious than either drug as a standalone agent.
Signaling Technology), respectively, for immunostaining. […]
(Armenian Hamster monoclonal antibody, clone 2H8, Millipore). Positive cells were counted from five random fields for each HCC tissue section. […]
monitored by high-frequency ultrasonography. […]
A general note: Xenograft models place foreign cells or tissue in a host animal.

Another data set deals with Hep-G2 cells. Nature of the data set: RNA-seq gene set enrichment analysis (Hallmark and GOBP GSEA). The class given is cell-based, human. Particulars: 24 h. On the procedure: To obtain transcriptome level evidence that may shed light on the HCC-selectivity and/or the enhanced potency of the combination of STR-V-53 with anti-PD-1 antibody, we performed RNA sequencing (RNA-seq) analysis on STR-V-53-treated Hep-G2 cells, incubated at IC50 and 2× IC50 for 24 h, relative to the untreated (DMSO) control. We first conducted gene set enrichment analysis (GSEA) using hallmark and gene ontology biological process (GOBP) gene sets to analyze the effect of STR-V-53 vs DMSO-treated control on the Hep-G2 transcriptome.[42],[43] […] Negative enrichment of the G2 M checkpoint pathway supports the finding that STR-V-53 induced S phase arrest in Hep-G2 cells (see Figure 4). […]
and allowed to grow for 48 hours.
RCF, with this washing step repeated twice. Next, using RNeasy Plus Mini Kit and Qiagen QIAcube […]
determined using a DeNovix spectrophotometer. Subsequently, quality control of the RNA samples was […]
(base call error rate of […]).
FASTQ files of samples were analyzed through the RNA-seq pipeline provided by the Gryder lab1. Reads were aligned to hg38 using STAR version 2.5.3a, and gene expression was calculated as Transcripts per Million mapped reads (TPM) using RSEM version 1.3.3 and filtered for coding genes. Differentially expressed genes lists were generated for each sample by calculating log2 fold change of the averaged sample TPM versus the averaged DMSO-treated control cells TPM and filtering for genes with |log2 fold change| > -1 and false discovery rate < 0.25. Hallmark2 and gene ontology biological processes (GOBP)3 gene set enrichment analysis (GSEA) was performed on the differentially expressed gene lists using the GSEA software (parameters: Run GSEAPreranked, Collapse/Remap- No_Collapse)4. GSEA results were interpreted and visualized using scripts provided by the Gryder lab1.Volcano plots were generated using DESeq2v1.41.1 and visualized with the ggplot2 R packages5,6. […]

The target of the next data set is HDAC5 (Homo sapiens, UniProt Q9UQL6). Briefly: HDAC isoform inhibition (BPS Bioscience).
A further data set deals with HDAC10 (Homo sapiens, UniProt Q969S8). Nature of the data set: HDAC isoform inhibition (BPS Bioscience).
Sequence of HDAC10 (Q969S8 whole entry, canonical isoform): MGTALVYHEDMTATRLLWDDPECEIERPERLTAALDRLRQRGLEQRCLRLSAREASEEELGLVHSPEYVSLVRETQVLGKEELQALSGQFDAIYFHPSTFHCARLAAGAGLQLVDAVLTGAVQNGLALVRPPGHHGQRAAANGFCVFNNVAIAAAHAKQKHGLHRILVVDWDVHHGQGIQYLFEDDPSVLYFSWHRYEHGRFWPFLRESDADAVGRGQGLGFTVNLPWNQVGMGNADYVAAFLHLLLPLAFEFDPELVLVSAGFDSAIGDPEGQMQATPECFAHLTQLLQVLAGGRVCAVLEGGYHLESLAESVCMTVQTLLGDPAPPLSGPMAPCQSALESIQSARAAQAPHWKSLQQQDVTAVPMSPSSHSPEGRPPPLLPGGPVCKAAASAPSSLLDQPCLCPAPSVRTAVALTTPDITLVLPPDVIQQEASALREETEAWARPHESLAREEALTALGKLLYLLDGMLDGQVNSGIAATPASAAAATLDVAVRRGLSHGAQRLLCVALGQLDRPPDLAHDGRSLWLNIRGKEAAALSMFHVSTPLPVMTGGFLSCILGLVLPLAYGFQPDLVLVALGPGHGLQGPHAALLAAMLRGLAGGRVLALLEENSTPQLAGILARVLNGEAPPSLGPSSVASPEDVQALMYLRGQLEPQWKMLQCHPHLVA

Sequence of HDAC5 (Q9UQL6 whole entry, canonical isoform): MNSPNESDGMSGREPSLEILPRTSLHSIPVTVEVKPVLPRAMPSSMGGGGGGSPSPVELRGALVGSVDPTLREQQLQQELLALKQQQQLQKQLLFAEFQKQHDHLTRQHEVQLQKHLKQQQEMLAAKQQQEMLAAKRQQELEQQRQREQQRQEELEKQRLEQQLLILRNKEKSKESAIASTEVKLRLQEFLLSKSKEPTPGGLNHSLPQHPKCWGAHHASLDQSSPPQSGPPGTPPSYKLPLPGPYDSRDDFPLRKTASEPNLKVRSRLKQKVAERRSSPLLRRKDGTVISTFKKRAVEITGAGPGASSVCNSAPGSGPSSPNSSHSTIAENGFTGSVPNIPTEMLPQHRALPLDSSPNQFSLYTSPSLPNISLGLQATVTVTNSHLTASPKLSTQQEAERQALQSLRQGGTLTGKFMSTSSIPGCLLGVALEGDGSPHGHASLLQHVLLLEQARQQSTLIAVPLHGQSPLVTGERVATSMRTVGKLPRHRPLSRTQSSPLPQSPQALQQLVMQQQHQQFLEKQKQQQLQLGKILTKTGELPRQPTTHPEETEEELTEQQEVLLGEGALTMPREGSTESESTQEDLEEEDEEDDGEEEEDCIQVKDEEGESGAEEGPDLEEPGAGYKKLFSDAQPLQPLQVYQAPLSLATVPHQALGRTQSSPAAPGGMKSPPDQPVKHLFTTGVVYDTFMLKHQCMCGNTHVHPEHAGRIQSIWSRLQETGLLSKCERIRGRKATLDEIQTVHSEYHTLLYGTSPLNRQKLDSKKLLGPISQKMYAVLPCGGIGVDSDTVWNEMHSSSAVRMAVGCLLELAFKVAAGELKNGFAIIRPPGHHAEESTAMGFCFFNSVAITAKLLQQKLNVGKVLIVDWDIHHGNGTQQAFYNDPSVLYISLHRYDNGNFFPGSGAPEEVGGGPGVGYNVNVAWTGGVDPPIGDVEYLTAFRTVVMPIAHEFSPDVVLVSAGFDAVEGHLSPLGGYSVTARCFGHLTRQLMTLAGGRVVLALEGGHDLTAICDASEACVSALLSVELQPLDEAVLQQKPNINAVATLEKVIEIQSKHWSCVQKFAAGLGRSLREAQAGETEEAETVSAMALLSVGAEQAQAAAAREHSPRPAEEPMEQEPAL

In turn, `O=C(CCCCCCn1cc(-c2ccc(O[C@H]3O[C@H](CO)[C@@H](O)[C@H](O)[C@H]3O)cc2)nn1)NO` [STR-V-53] returned a half-life in data set [1] (human plasma) of over 1200 min. In addition, the half-life in data set [1] (mouse, murine plasma) was found to be 46 min. In addition, the “Tumor growth inhibition (TGI)” value in data set [2] (25 mg/kg daily i.p. for 21 days) was 60%. Also, the “Tumor growth inhibition (TGI)” value in data set [2] (50 mg/kg daily i.p. for 21 days) was 68%. Moreover, in the data set on Hep-G2 cells (2× IC50 (20 μM)), the “NES, G2/M checkpoint (Hallmark GSEA)” value is given as −2.2; the “NES, MYC targets v1 (Hallmark GSEA)” value is −2.3; the “NES, MYC targets v2 (Hallmark GSEA)” value is recorded as −2.6; the “NES, PI3K/Akt/mTOR signaling (Hallmark GSEA)” value is listed as −1.7. In the data set on Hep-G2 cells (2× IC50 (20 μM)), the “NES, antimicrobial humoral immune response mediated by an antimicrobial peptide (GOBP GSEA)” value is reported as 1.9; the “NES, cytokine-mediated signaling pathway (GOBP GSEA)” value is recorded as −1.4; the “NES, glucose-regulated transcription genes (GOBP GSEA)” value is −1.8; the “NES, humoral immune response (GOBP GSEA)” value amounted to 1.7. In addition, in the data set with Hep-G2 cells (2× IC50 (20 μM)), the “NES, innate immune response in the mucosa (GOBP GSEA)” value came to 2.3; the “NES, p53 pathway (Hallmark GSEA)” value turned out to be 1.6; the “NES, positive regulation of glucose import (GOBP GSEA)” value is reported as −1.6. In the data set with Hep-G2 cells (IC50 (10 μM)), the “NES, G2/M checkpoint (Hallmark GSEA)” value was −2.9; the “NES, MYC targets v1 (Hallmark GSEA)” value is −2.6; the “NES, MYC targets v2 (Hallmark GSEA)” value was −2.3; the “NES, antimicrobial humoral immune response mediated by an antimicrobial peptide (GOBP GSEA)” value was 1.9. Besides, in the data set on Hep-G2 cells (IC50 (10 μM)), the “NES, glucose-regulated transcription genes (GOBP GSEA)” value was −1.8; the “NES, humoral immune response (GOBP GSEA)” value came out at 1.9; the “NES, innate immune response in the mucosa (GOBP GSEA)” value is 2.1. In addition, the midpoint of inhibition against HDAC5, the IC50, lay at 7 µM. At HDAC10, this compound displayed a concentration for half-maximal inhibition (IC50) of 54 nM.
